Among the data in patent US20030225081A1, “Pyridazinones and triazinones and medicinal use thereof” (priority 2000, published 2003) are IC50 values, retold here.

The subject of the experiment is AMPA receptor. The experiment is described as follows: Suppressing action to calcium influx into nerve cells induced by AMPA. It counts as cell-based. As to conditions: Fura2-AM, stimulation with 2 μM AMPA, primary culture of rat embryo cerebral cortex nerve cells, 1 μM MK-801. The text has this:
Suppressing Action to Calcium Influx into Nerve Cells Induced by AMPA
The suppressing action of the compounds of the present invention to calcium influx into nerve cells induced by AMPA was investigated using the primary culture system of nerve cells of cerebral cortex of embryo of rat.
Cerebral cortex was cut out from the brain of rat of gestational 18 days and treated with trypsin and DNase to disperse the cells. The cells were flown by MEM containing 10% of serum, sown in a culture bottle and astrocytes were proliferated. The astrocytes were re-dispersed by trypsin and sown in a 96-well plate. After incubation for one week, it was confirmed that the astrocytes covered all over the bottom and then the nerve cells of cerebral cortex which was dispersed by the above method were sown thereupon. After incubation for 24 hours, the medium was changed, the incubation was carried out for one week and, after that, the medium was changed to that containing 1 μM of MK-801. Nerve cells which were incubated for not shorter than 8 to 10 days were used.
Calcium influx into the cells was measured using Fura2-AM which was a calcium-sensitive fluorescent dye. It was treated in a medium containing Fura2-AM for 1 hour, incorporated into the cells, exchanged to a Tyrode solution containing 1 μM MK-801 and stimulation was carried out using 2 μM AMPA. Change in the amount of calcium flown into the cells were measured as the change in the fluorescent intensity at the exciting wave length of 340/380 nm. […] As the control compound, GYKI52466 (Le Peillet, et al., Brain Res., 571, 115, 1992) was used.
Consider `N#Cc1ccccc1N1N=C2c3ccccc3OCC2C(c2ccccc2)C1=O` (stereo not drawn) [Example 6, 2-(2-Cyanophenyl)-4-phenyl-2,3,4,4a-tetrahydro-5H-(1)benzopyrano[4,3-c]pyridazin-3-one], for which the IC50 came to 100 nM.

Regarding `N#Cc1ccccc1-n1nc(-c2ccccn2)cc(-c2cccc(OCCO)c2)c1=O` [Example 4, 2-(2-Cyanophenyl)-4-[3-(2-hydroxyethoxy)phenyl]-6-(2-pyridyl)-3 (2H)-pyridazinone], the IC50 was 60 nM.

For `COc1ccccc1C1=NN(c2ccccc2Br)C(=O)N(c2ccsc2)C1` [Example 108, 2-(2-Bromophenyl)-6-(2-methoxyphenyl)-4-(thiophen-3-yl)-4,5-dihydro-1,2,4-triazin-3 (2H)-one], the IC50 amounted to 4000 nM.

Turning to `O=c1c(-c2cccnc2)cc(-c2ccccn2)nn1-c1ccccc1[N+](=O)[O-]` [Example 63, 2-(2-Nitrophenyl)-4-(3-pyridyl)-6-(2-pyridyl)-3 (2H)-pyridazinone], the IC50 stood at 300 nM.

For the compound `COc1ccccc1C1=NN(c2ccccc2Br)C(=O)N(c2ccccc2)C1` [Example 89, 2-(2-Bromophenyl)-6-(2-methoxyphenyl)-4-phenyl-4,5-dihydro-1,2,4-triazin-3 (2H)-one], the IC50 turned out to be 5000 nM.

As for `CN(C)CCOc1ccccc1C1=NN(c2ccccc2Br)C(=O)N(c2ccccc2)C1` [Example 91, 2-(2-Bromophenyl)-6-(2-dimethylaminoethoxyphenyl)-4-phenyl-4,5-dihydro-1,2,4-triazin-3 (2H)-one], the IC50 was 300 nM.

`O=c1c(-c2cccnc2)c2c(nn1-c1ccccc1Br)-c1ccccc1OC2` [Example 57, 2-(2-Bromophenyl)-4-(3-pyridyl)-2,3-dihydro-5H-(1)benzopyrano[4,3-c]pyridazine-3-one]: the IC50 was 200 nM.

Take `O=C1N(c2ccccn2)CC(c2ccccn2)=NN1c1ccccc1Br` [Example 118, 2-(2-Bromophenyl)-6-(2-pyridyl)-4-(2-pyridyl)-4,5-dihydro-1,2,4-triazin-3 (2H)-one]: the IC50 turned out to be 30 nM.

`N#Cc1ccccc1N1CC(c2ccccn2)=NN(c2ccccc2Br)C1=O` [Example 111, 2-(2-Bromophenyl)-4-(2-cyanophenyl)-6-(2-pyridyl)-4,5-dihydro-1,2,4-triazin-3 (2H)-one]: the IC50 was determined as 400 nM.

For the compound `O=C1N(c2ccccc2Br)CC(c2ccccc2)=NN1c1ccccc1` [Example 113, 4-(2-Bromophenyl)-2,6-diphenyl-4,5-dihydro-1,2,4-triazin-3 (2H)-one], the IC50 was 7100 nM.

On to `O=C1N(c2ccccc2O)CC(c2ccccn2)=NN1c1ccccc1Br` [Example 86, 2-(2-Bromophenyl)-4-(2-hydroxyphenyl)-6-(2-pyridyl)-4,5-dihydro-1,2,4-triazin-3 (2H)-one], for which the half-inhibitory concentration (IC50) stood at 100 nM.

With `COc1ccccc1N1CC(c2ccccn2)=NN(c2ccccc2C#N)C1=O` [Example 87, 2-(2-Cyanophenyl)-4-(2-methoxyphenyl)-6-(2-pyridyl)-4,5-dihydro-1,2,4-triazin-3 (2H)-one], the 50% inhibitory concentration (IC50) was 50 nM.

As to `N#Cc1ccccc1-n1nc2c(c(-c3ccccc3)c1=O)C(O)Oc1ccc(F)cc1-2` (stereo not drawn) [Example 53, 2-(2-Cyanophenyl)-9-fluoro-5-hydroxy-4-phenyl-2,3-dihydro-5H-(1)benzopyrano[4,3-c]pyridazin-3-one], the IC50 was 500 nM.

`N#Cc1ccccc1-n1nc(-c2cnccn2)cc(-c2ccccc2)c1=O` [Example 82, 2-(2-Cyanophenyl)-4-phenyl-6-(2-pyrazinyl)-3 (2H)-pyridazinone]: the IC50 worked out at 1200 nM.

Take `O=C1N(c2cccnc2)CC(c2ccccn2)=NN1c1ccccc1Br` [Example 110, 2-(2-Bromophenyl)-6-(2-pyridyl)-4-(3-pyridyl)-4,5-dihydro-1,2,4-triazin-3 (2H)-one]: the IC50 was determined as 100 nM.

On to `O=Cc1cccc(N2CC(c3ccccn3)=NN(c3ccccc3Br)C2=O)c1` [Example 123, 2-(2-Bromophenyl)-4-(3-formylphenyl)-6-(2-pyridyl)-4,5-dihydro-1,2,4-triazin-3 (2H)-one], for which the IC50 amounted to 300 nM.

For `N#Cc1ccccc1-c1cc(-c2ccccn2)nn(-c2ccccc2)c1=O` [Example 23, 4-(2-Cyanophenyl)-2-phenyl-6-(2-pyridyl)-3 (2H)-pyridazinone], the IC50 was 100 nM.

In the case of `N#Cc1ccccc1-n1nc2c(c(-c3ccccc3)c1=O)COc1ccccc1-2` [Example 7, 2-(2-Cyanophenyl)-4-phenyl-2,3-dihydro-5H-(1)benzopyrano[4,3-c]pyridazin-3-one], the IC50 was 200 nM.

In the case of `O=C1N(c2ccccc2)CC(c2ncccn2)=NN1c1ccccc1Cl` [Example 129, 2-(2-Chlorophenyl)-4-phenyl-6-(2-pyrimidinyl)-4,5-dihydro-1,2,4-triazin-3 (2H)-one.], the IC50 came out at 3000 nM.

For the compound `COc1ccc(C2CC(c3ccccn3)=NN(c3ccccc3Br)C2=O)cc1` (stereo not drawn) [Example 15, 2-(2-Bromophenyl)-4-(4-methoxyphenyl)-6-(2-pyridyl)-4,5-dihydro-3 (2H)-pyridazinone], the IC50 is 200 nM.

Take `N#Cc1ccccc1-n1nc(-c2ccccn2)cc(-c2ccccc2O)c1=O` [Example 42, 2-(2-Cyanophenyl)-4-(2-hydroxyphenyl)-6-(2-pyridyl)-3 (2H)-pyridazinone]: the IC50 is 100 nM.

As to `COc1ccc(N2CC(c3ccccn3)=NN(c3ccccc3)C2=O)c(OC)c1` [Example 107, 4-(2,4-Dimethoxyphenyl)-2-phenyl-6-(2-pyridyl)-4,5-dihydro-1,2,4-triazin-3 (2H)-one], the IC50 came to 300 nM.

For the compound `COc1ccccc1N1N=C(c2ccccn2)CC(c2cccnc2)C1=O` (stereo not drawn) [Example 76, 2-(2-Methoxyphenyl)-4-(3-pyridyl)-6-(2-pyridyl)-4,5-dihydro-3 (2H)-pyridazinone], the IC50 turned out to be 6200 nM.

As to `COc1ccccc1C1CC(c2ccccn2)=NN(c2ccccc2)C1=O` (stereo not drawn) [Example 18, 4-(2-Methoxyphenyl)-2-phenyl-6-(2-pyridyl)-4,5-dihydro-3 (2H)-pyridazinone], the IC50 came to 100 nM.

Turning to `O=C1C(c2ccccc2)CC(c2cccnc2)=NN1c1ccccc1Br` (stereo not drawn) [Example 20, 2-(2-Bromophenyl)-4-phenyl-6-(3-pyridyl)-4,5-dihydro-3 (2H)-pyridazinone], the IC50 turned out to be 100 nM.

On to `O=C1C(C(O)c2ccccn2)CC(c2ccccc2)=NN1c1ccccc1` (stereo not drawn) [Example 11, 2,6-Diphenyl-4-(a-hydroxy-2-picolyl)-4,5-dihydro-3 (2H)-pyridazinone], for which the IC50 amounted to 9900 nM.

As for `O=C1N(c2ccccc2)CC(c2ncccn2)=NN1c1ccccc1` [Example 119, 2-Phenyl-4-phenyl-6-(2-pyrimidinyl)-4,5-dihydro-1,2,4-triazin-3 (2H)-one], the IC50 came to 4300 nM.

For the compound `Cc1cccc(N2CC(c3ccccn3)=NN(c3ccccc3Br)C2=O)c1` [Example 124, 2-(2-Bromophenyl)-4-(3-tolyl)-6-(2-pyridyl)-4,5-dihydro-1,2,4-triazin-3 (2H)-one], the IC50 worked out at 200 nM.

On to `O=C1N(c2ccc(F)cc2)CC(c2ccccn2)=NN1c1ccccc1Br` [Example 122, 2-(2-Bromophenyl)-4-(4-fluorophenyl)-6-(2-pyridyl)-4,5-dihydro-1,2,4-triazin-3 (2H)-one], for which the IC50 was 200 nM.

For the compound `O=C1N(c2cccnc2)CC(c2ccccn2)=NN1c1ccccc1` [Example 109, 2-Phenyl-6-(2-pyridyl)-4-(3-pyridyl)-4,5-dihydro-1,2,4-triazin-3 (2H)-one], the IC50 turned out to be 300 nM.

Broadly, the IC50 is the point on the concentration scale where inhibition reaches its midpoint.
